# pIC50: −log10 of the molar value.
# Experiments:
# LTB4 receptors = target: T1, LTB4 receptors (Homo sapiens, UniProt Q15722); experiment: LTB4 Receptor Binding Assay (inhibition of specific (3H) LTB4 binding to neutrophils); settings: 0.6nM (3H) LTB4, human neutrophils, 0°C, 45 minutes, pH 7.4
# T1 construct: neutrophils were purified from venous blood of normal human donors; endogenous in cells; host or cells: human neutrophils purified from venous blood of normal donors
# Protocol: Neutrophils (4-6×10^6) in 1ml of Hanks' balanced salt solution containing 10mM Hepes Buffer (HBSS), pH 7.4 and 30 μM nordihydroguaiaretic acid were incubated with 0.6nM (^3 H) LTB4 in the presence or absence of test compounds. The incubation was carried out at 0°C. for 45 minutes and terminated by adding 5ml of ice-cold HBSS followed by rapid filtration of incubation mixture under vacuum through GF/C glass fiber filters. The filters were further washed with 10ml HBSS and their radioactivity determined. Specific binding was defined as the difference between total binding and nonspecific binding which was not displaced by 10^- 7M unlabeled LTB4.
# [1] = Boyden Chamber Inhibition (as Antagonist); type: cell-based; settings: at 10^-5 (concentration unit not given)
# Human Neutrophil = Human Neutrophil Degranulation Assay (LTB4 induced, myeloperoxidase release); type: cell-based; settings: LTB4 5×10^-8 M, cytochalasin B, 37°C, read-out: Inhibition of LTB4 Induced Neutrophil Degranulation IC50
# Excerpt: For use in both the "LTB4 receptor Binding Assay" and the "human Neutrophil Degranulation Assay", neutrophils were purified from venous blood of normal human donors using standard techniques of dextran sedimentaion, centrifugation on Histopaque^2 (density solution) and hypotonic lysis of erythrocytes (Boyum, A., Isolation of Leukocytes From Human Blood: Further Observations. Scand. J. Lab. Clin. Inves. 21 (Suppl. 97): 31, 1968). The purity of isolated neutrophilis was ≥95%.
# LTB4 induced neutrophil degranulation was determined by measuring the release of myeloperoxidase activity into the incubation medium. Neturophils (3 ×10^6) in 1ml HBSS solution were preincubated with cytochalasin B(5μg) at 37°C. for 5 minutes, followed by preincubation with test compounds for 7 minutes. Neutrophils were then incubated for 2 to 20 minutes with either LTB4 (5 ×10^- 8M) or the chemotatic peptide f-met-leu-phe (5 ×10^- 6M) to induce degranulation. Following incubation, samples were centrifuged and myeloperoxidase was extracted from the cell pellets by sonication in phoshpate buffer containing 0.4% Triton X-100. Triton X-100 was also added to the supernatents to a concentration of 0.4%. The supernatants and the pellet extracts were then assayed spectrophotometrically for myeloperoxide activity by determining the rate of decomposition of H2 O2 withh o-dianisidine as hydrogen donor as described by Renlund, D. G., MacFarlane, J. L., Christensen, R. D., Lynch, R. E., and Rothstein, G., A Quantitative And Sensitive Method For Measurement Of Myeloperoxidase, Clinical Research 28:75A, 1980). Myeloperoxidase activity released into the supernatant was expressed as the percent of the average total activity (pellet plus supernatant).
# The inhibition of LTB4 induced neutrophil degranulation was determined for representative compounds of this invention and their corresponding IC50 values were calculated (Table 1). The concentration of a compound which inhibited LTB4 induced neutrophil degranulation by 50% was determined to be its IC50 value.
# T1 sequence (Q15722 whole entry): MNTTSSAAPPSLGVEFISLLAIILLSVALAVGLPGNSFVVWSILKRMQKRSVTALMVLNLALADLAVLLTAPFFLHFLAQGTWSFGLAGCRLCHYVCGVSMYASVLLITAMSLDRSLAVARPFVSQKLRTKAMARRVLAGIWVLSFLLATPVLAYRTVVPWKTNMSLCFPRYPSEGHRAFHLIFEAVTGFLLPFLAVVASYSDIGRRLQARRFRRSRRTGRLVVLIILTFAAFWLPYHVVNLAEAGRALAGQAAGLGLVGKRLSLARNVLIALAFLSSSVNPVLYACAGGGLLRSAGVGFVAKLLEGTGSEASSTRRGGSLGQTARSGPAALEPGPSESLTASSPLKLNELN
Structure (SMILES),pIC50 (LTB4 receptors),Boyden Chamber Inhibition at 10^-5 (as Antagonist) [1],pIC50 (Human Neutrophil)
CCCCCCCCC(O)/C=C/C=C/c1ccccc1C(=O)CCCC(=O)O (stereo not drawn),5.52,8%,6.00
CCCCCCCCC(O)/C=C/C=C/c1ccc(C(=O)CCCC(=O)O)s1 (stereo not drawn),5.39,30%,5.74
CCCCCCCCC(O)/C=C/C=C/c1ccc(C(O)CCCC(=O)O)s1 (stereo not drawn),5.20,33%,5.28
